Measured values: EP0528583A1, “Isolation and structure of the cell growth inhibitory cycloheptapeptide axinastatin 1” (ARIZONA BOARD OF REGENTS, priority 1991, dated 1993)
Residues, ends and D or L forms follow the SMILES beside them.

Columns and labels:
[1] = system: NCI murine P388 lymphocytic leukemia cell line; experiment: P388 (PS system) lymphocytic leukemia cell growth inhibition in culture, NCI protocol; format: cell-based; details: concentration required to inhibit growth of tumor cells in culture by 50 percent
Source text: (§1) The isolation and purification methods chosen can be monitored at each step by performing in-vitro and/or in-vivo antitumor tests as described by R. I. Geran, N.H. Greenberg, M. M. MacDonald, A.M. Schumacher and B. S. Abbot in Cancer Chemotherapy Rep., Part 3, Vol 3: 1-103 (1972); and by Schmidt, J. M.; Pettit, G. R. in Experientia 1978, 34: 659-660. Such tests include the determination of the concentration of active material required to inhibit the growth of tumor cells in culture, (e.g. the concentration required to inhibit growth by 50 percent or the E.D.₅₀) and of the dose of active material required to prolong the life of mice bearing transplanted tumors ("life extension").

[2] = system: P388 lymphocytic leukemia; experiment: In vivo P388 (PS) lymphocytic leukemia life extension, NCI protocol; parameters: species or system mice; details: in vivo P388 lymphocytic leukemia system; dose not given
Source text: as §1

## CC(C)[C@@H]1NC(=O)[C@H](Cc2ccccc2)NC(=O)[C@@H]2CCCN2C(=O)[C@H](CC(N)=O)NC(=O)[C@H](C(C)C)NC(=O)[C@@H]2CCCN2C(=O)[C@H](C(C)C)NC1=O [axinastatin 1, cyclo (Asn-Pro-Phe-Val-Val-Pro-Val)] (cyclo(FVVPVNP))
[1]
  PS ED₅₀: 0.21 µg/mL
[2]
  life extension: 20%
